This passage reports LC retention time results from the RepoRT retention time repository (doi:10.1016/j.chroma.2019.01.023).

Holding throughout (settings): stereoisomer not certain
The nature of data set [1]: HILIC, Merck SeQuant ZIC-pHILIC, 150 × 2.1 mm, 5 µm, 40 °C, 0.3 mL/min, estimated dead time 1.1 min; A: acetonitrile; B: water + 2.8 mM ammonium formate, pH 9; gradient (min/%B) 0/5 1/5 10/51 13/51 13.1/5 20/5.
Data set [2] can be described thus: RP, Phenomenex Kinetex C18, 150 × 2.1 mm, 1.7 µm, 30 °C, 0.3 mL/min, estimated dead time 1.1 min; A: water + 0.1% formic acid, pH 3; B: acetonitrile + 0.1% formic acid, pH 3; gradient (min/%B) 0/2 14/100 17/100 17.1/2 25/2.
Assay in data set [3]: as above
The source holds these as a separate data set.

A short description of data set [4]: HILIC, Waters ACQUITY UPLC BEH Amide, 150 × 2.1 mm, 1.7 µm, 40 °C, 0.5 mL/min, estimated dead time 0.66 min; A: 5% water + 95% acetonitrile; B: 70% water + 30% acetonitrile + 10 mM ammonium formate, pH 6.5; gradient (min/%B) 0/0 2/0 20/70 23/70 24/0 31/0.

Consider `Cn1cnc2c(ncn2C2OC(CO)C(O)C2O)c1=N` (configuration not stated) [1-METHYLADENOSINE], for which the LC retention time was 4.07 min in data set [1], 3.16 min in data set [2], 3.36 min in data set [3] and 2.82 min in data set [4].
`CC(=O)c1ccc(O)cc1O` [2',4'-DIHYDROXYACETOPHENONE]: the LC retention time in data set [2] was 6.35 min; in data set [3], 6.45 min; in data set [4] it was 0.96 min.
Consider `O=c1[nH]c(=O)c2nccnc2[nH]1` [2,4-DIHYDROXYPTERIDINE], for which the LC retention time is 4.42 min in data set [1], 2.24 min in data set [2], 2.49 min in data set [3] and 1.79 min in data set [4].
With `O=C(O)c1ccc([O-])c(O)c1` [3,4-DIHYDROXYBENZOATE], the results for the LC retention time in data set [1], in data set [2] and in data set [3] were 8.04 min, 3.77 min and 3.88 min, respectively.
Consider `N[C@@H](Cc1cc(I)c(Oc2ccc(O)cc2)c(I)c1)C(=O)O` [3,5-DIIODO-L-THYRONINE], for which the LC retention time is 6.36 min in data set [1], 6.44 min in data set [2], 6.51 min in data set [3] and 6.98 min in data set [4].
For `N[C@@H](Cc1cc(I)c(O)c(I)c1)C(=O)O` [3,5-DIIODO-L-TYROSINE], the LC retention time in data set [1] is 7.41 min; in data set [2] it was 4.8 min; in data set [3], 4.95 min.
Regarding `Nc1cc([O-])cc(C(=O)O)c1` [3-AMINO-5-HYDROXYBENZOATE], the LC retention time was 8.3 min in data set [1], 1.62 min in data set [2], 1.75 min in data set [3] and 2.31 min in data set [4].
Regarding `CC(O)(CC(=O)O)CC(=O)O` [3-HYDROXYMETHYLGLUTARATE], the figures for the LC retention time in data set [1], in data set [2] and in data set [3] were 8.15 min, 2.24 min and 2.36 min, respectively.
For the compound `N[C@@H](Cc1ccc(O)c([N+](=O)[O-])c1)C(=O)O` [3-NITRO-L-TYROSINE], the results for the LC retention time in data set [1], in data set [2] and in data set [3] were 7.37 min, 3.48 min and 3.56 min, respectively.
In the case of `CC(=O)NCCCC(=O)[O-]` [4-ACETAMIDOBUTANOATE], the LC retention time in data set [1] is 5.1 min; in data set [2], 2.47 min; in data set [3], 2.62 min; in data set [4], 3.11 min.
For `O=C(O)C=Cc1ccc(O)cc1` [4-COUMARATE], the LC retention time in data set [1] was 5.24 min; in data set [2] it was 5.47 min; in data set [3], 5.65 min.
With `O=C(O)c1ccc([O-])cc1` [4-HYDROXYBENZOATE], the LC retention time is 4.51 min in data set [2] and 4.66 min in data set [3].
Take `Cc1ncc(CO)c(C(=O)O)c1O` [4-PYRIDOXATE]: the LC retention time in data set [1] is 1.69 min; in data set [2] it was 2.73 min; in data set [3] it was 2.83 min.
`O=C(O)c1ccnc2ccccc12` [4-QUINOLINECARBOXYLATE]: the LC retention time in data set [1] was 5.08 min; in data set [2], 2.29 min; in data set [3], 2.5 min; in data set [4], 2.82 min.
For the compound `CC1OC(n2cnc3c(N)ncnc32)C(O)C1O` (configuration not stated) [5'-DEOXYADENOSINE], the LC retention time is 4.24 min in data set [1], 3.11 min in data set [2], 3.24 min in data set [3] and 2.4 min in data set [4].
Regarding `O=C(O)Cc1c[nH]c2ccc(O)cc12` [5-HYDROXYINDOLEACETATE], the LC retention time in data set [1] was 5.86 min; in data set [2] it was 4.49 min; in data set [3] it was 4.69 min; in data set [4], 1.37 min.
Regarding `NC(Cc1c[nH]c2ccc(O)cc12)C(=O)O` (configuration not stated) [5-HYDROXYTRYPTOPHAN], the figures for the LC retention time in data set [1], in data set [2] and in data set [3] were 8.74 min, 2.99 min and 3.05 min, respectively.
For `O=C(O)CCCCCC(=O)O` [6-CARBOXYHEXANOATE], in that order: 6.74 min, 4.56 min and 4.73 min.
As to `O=C(O)c1ccc(=O)[nH]c1` [6-HYDROXYNICOTINATE], the LC retention time in data set [1] was 7.69 min; in data set [2], 2.61 min; in data set [3] it was 2.76 min; in data set [4], 5.68 min.
For the compound `CCCCC(CC)COC(=O)c1ccccc1C(=O)OCC(CC)CCCC` (configuration not stated) [BIS(2-ETHYLHEXYL)PHTHALATE], the LC retention time in data set [2] is 9.02 min; in data set [3], 9.11 min.
In the case of `CC(CCC(=O)O)C1CCC2C3C(O)CC4CC(O)CCC4(C)C3CCC12C` (configuration not stated) [CHENODEOXYCHOLATE], the LC retention time in data set [2] is 10.7 min; in data set [3], 10.8 min; in data set [4], 1 min.
Regarding `CC12CCC(=O)C=C1CCC1C2CCC2(C)C1CCC2(O)C(=O)CO` (configuration not stated) [CORTEXOLONE], the LC retention time in data set [2] was 8.32 min; in data set [3] it was 8.31 min; in data set [4], 0.83 min.
Regarding `CC12CCC(=O)C=C1CCC1C2C(O)CC2(C)C(C(=O)CO)CCC12` (configuration not stated) [CORTICOSTERONE], the LC retention time in data set [2] is 8.03 min; in data set [3], 8.14 min; in data set [4], 0.85 min.
For `CC(=O)OCC(=O)C1(O)CCC2C3CCC4=CC(=O)CCC4(C)C3C(O)CC21C` (configuration not stated) [CORTISOL 21-ACETATE], in that order: 8.62 min, 8.68 min and 0.83 min.
The matching figures for `CC12CCC(=O)C=C1CCC1C2C(=O)CC2(C)C1CCC2(O)C(=O)CO` (configuration not stated) [CORTISONE]: 7.16 min, 7.28 min and 0.86 min.
For `Nc1nc2c(ncn2C2OC3COP(=O)(O)OC3C2O)c(=O)[nH]1` (configuration not stated) [CYCLIC GMP], the LC retention time was 8.22 min in data set [1], 2.64 min in data set [2] and 2.8 min in data set [3].
Turning to `CC(O)C(O)C1=Nc2c(nc(N)[nH]c2=O)NC1` (configuration not stated) [DIHYDROBIOPTERIN], the LC retention time in data set [1] is 5.52 min; in data set [2], 4.09 min; in data set [3] it was 2.14 min.
The matching figures for `Nc1nc2ncc(CNc3ccc(C(=O)NC(CCC(=O)O)C(=O)O)cc3)nc2c(=O)[nH]1` (configuration not stated) [FOLATE]: 9.42 min, 11.3 min and 4.35 min.
Regarding `CCCCCC=CCC=CCC=CCCCCC(=O)[O-]` [GAMMA-LINOLENATE], the LC retention time in data set [2] and in data set [3] was 11.8 min throughout.
As to `CC(CCC(=O)NCC(=O)O)C1CCC2C3C(O)CC4CC(O)CCC4(C)C3CCC12C` (configuration not stated) [GLYCOCHENODEOXYCHOLATE], the LC retention time was 4.94 min in data set [1], 9.21 min in data set [2] and 9.28 min in data set [3].
For `N[C@@H](Cc1ccc(O)c(O)c1)C(=O)O` [L-DOPA], in that order: 9.15 min, 1.57 min and 1.63 min.
Consider `NC(Cc1cc(I)c(Oc2ccc(O)c(I)c2)c(I)c1)C(=O)O` (configuration not stated) [LIOTHYRONINE], for which the LC retention time in data set [1] is 6.19 min; in data set [2], 7.41 min; in data set [3] it was 7.42 min.
For the compound `CC(CCC(=O)NCCS(=O)(=O)O)C1CCC2C3CCC4CC(O)CCC4(C)C3CCC12C` (configuration not stated) [LITHOCHOLYLTAURINE], the LC retention time in data set [2] is 9.54 min; in data set [3], 9.43 min; in data set [4], 1.01 min.
Regarding `CC(=O)NC(CCC(=O)O)C(=O)O` (configuration not stated) [N-ACETYLGLUTAMATE], the values for the LC retention time in data set [1], in data set [2] and in data set [3] were 8.75 min, 1.78 min and 1.9 min, respectively.
For `CC(=O)N1CCCC1C(=O)O` (configuration not stated) [N-ACETYLPROLINE], in that order: 6.05 min, 3.39 min and 3.52 min.
The matching figures for `O=C(O)c1cccnc1C(=O)O` [QUINOLINATE]: 1.76 min, 1.47 min and 1.5 min.
In the case of `CC(C=CC1=C(C)CCCC1(C)C)=CC=CC(C)=CC(=O)[O-]` [RETINOATE], the LC retention time was 8.2 min in data set [2] and 11.2 min in data set [3].
The matching figures for `CCCCCCSCC(NC(=O)CCC(N)C(=O)O)C(=O)NCC(=O)O` (configuration not stated) [S-HEXYL-GLUTATHIONE]: 6.22 min and 6.27 min.
With `CC1NCCc2cc(O)c(O)cc21` (configuration not stated) [SALSOLINOL], the LC retention time in data set [2] was 1.95 min; in data set [3] it was 2.16 min; in data set [4], 8.1 min.
In the case of `Cn1cnc2c1c(=O)[nH]c(=O)n2C` [THEOBROMINE], the LC retention time is 1.93 min in data set [1], 3.68 min in data set [3] and 1.32 min in data set [4].
On to `NC(Cc1cc(I)c(Oc2cc(I)c(O)c(I)c2)c(I)c1)C(=O)O` (configuration not stated) [THYROXINE], for which the figures for the LC retention time in data set [1], in data set [2] and in data set [3] were 6.1 min, 8.07 min and 8.06 min, respectively.
Regarding `O=C([O-])c1c[nH]c(=O)[nH]c1=O` [URACIL 5-CARBOXYLATE], the LC retention time is 1.8 min in data set [2] and 1.93 min in data set [3].
Regarding `O=C(O)c1cc(=O)c2cccc(O)c2[nH]1` [XANTHURENATE], the values for the LC retention time in data set [1], in data set [2] and in data set [3] were 6.93 min, 4.05 min and 4.12 min, respectively.
